From patent US11306072B2, “5-bromo-indirubins” (City of Hope, priority 2013, dated 2022)
Where two headings read alike, the source gives them in different places.

Assays:
A2058 melanoma cells = assay: MTS cell viability assay, A2058 melanoma cells; assay type: cell-based, human; conditions: quadruplicate, read-out: IC50 values against cancer cells, A2058 melanoma
Protocol: (§1) FIGS. 2A-2G. Effects of 5BIODs on viabilities of human cancer cells; MTS assays were performed for cell viability; human A549 non-small cell lung cancer (FIG. 2A), MDA-MB-231 and MDA-MB-468 breast cancer (FIG. 2B), A2058 melanoma (FIG. 2C), DU145 prostate cancer (FIG. 2D), SKOV3 ovarian cancer (FIG. 2E), T315I Abl mutant KCL-22 CML (FIG. 2F) and MIA-PaCa2 pancreatic cancer (FIG. 2G) cells were seeded in 96-well plates (5000/well for solid tumor cell lines and 10000 cells/well for CML cell line), incubated overnight at 37° C. in 5% (v/v) CO2 and exposed to 5BIODs at 1 μM or 10 μM concentration for 48 h; DMSO was used as the vehicle control; cell viability was determined by tetrazolium conversion to its formazan dye and absorbance was measured at 490 nm using an automated ELISA plate reader; each experiment was performed in quadruplicate. Histogram ordering: FIG. 2B depicts MDA-MB-231 (black) and MDA-MB-468 (gray), in order left to right; FIG. 2C: 1 μM (gray); 10 μM (black), in order left to right; FIG. 2D: 1 μM (gray); 10 μM (black), in order left to right;

JAK2 = JAK2 (Homo sapiens, UniProt O60674); assay: In vitro kinase assay with recombinant protein (33P-ATP), JAK2; assay type: biochemical; conditions: 120 min at room temperature, read-out: IC50 against kinase activity in vitro, JAK2
JAK2, sequence (O60674 whole entry): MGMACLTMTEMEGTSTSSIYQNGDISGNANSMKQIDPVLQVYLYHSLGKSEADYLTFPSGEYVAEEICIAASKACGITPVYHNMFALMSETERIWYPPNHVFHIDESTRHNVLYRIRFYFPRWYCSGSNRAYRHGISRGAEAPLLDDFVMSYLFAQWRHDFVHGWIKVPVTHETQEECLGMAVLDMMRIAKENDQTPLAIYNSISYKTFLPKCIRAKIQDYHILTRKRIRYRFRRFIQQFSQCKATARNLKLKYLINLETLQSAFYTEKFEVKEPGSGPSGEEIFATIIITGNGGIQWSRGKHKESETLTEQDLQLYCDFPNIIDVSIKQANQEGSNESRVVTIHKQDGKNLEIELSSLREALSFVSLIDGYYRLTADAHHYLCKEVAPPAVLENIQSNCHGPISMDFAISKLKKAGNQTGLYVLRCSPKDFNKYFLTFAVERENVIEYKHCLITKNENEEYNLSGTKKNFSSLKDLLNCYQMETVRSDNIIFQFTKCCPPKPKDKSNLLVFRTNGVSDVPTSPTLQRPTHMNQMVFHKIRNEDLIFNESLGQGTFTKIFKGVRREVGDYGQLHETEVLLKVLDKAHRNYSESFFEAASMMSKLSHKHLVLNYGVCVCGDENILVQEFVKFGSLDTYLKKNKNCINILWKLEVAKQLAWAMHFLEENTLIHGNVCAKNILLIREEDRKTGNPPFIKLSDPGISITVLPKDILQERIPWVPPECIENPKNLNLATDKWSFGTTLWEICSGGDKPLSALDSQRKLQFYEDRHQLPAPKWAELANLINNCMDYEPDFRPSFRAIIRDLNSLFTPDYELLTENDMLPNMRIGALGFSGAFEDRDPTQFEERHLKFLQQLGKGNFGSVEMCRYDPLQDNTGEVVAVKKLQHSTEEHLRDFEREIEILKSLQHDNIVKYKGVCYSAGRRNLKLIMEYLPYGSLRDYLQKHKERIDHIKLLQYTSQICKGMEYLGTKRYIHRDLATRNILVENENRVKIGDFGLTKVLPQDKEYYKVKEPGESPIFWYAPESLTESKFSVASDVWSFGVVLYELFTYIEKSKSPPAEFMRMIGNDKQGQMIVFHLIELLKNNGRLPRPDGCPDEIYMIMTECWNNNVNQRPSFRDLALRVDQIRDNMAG
Protocol: (§2) The kinase assays were performed with recombinant proteins. Briefly, proteins, freshly prepared substrates and ^33P-ATP (specific activity 0.01 μCi/μl final) were mixed in reaction buffer (20 mM HEPES pH 7.5, 10 mM MgCl2, 1 mM EGTA, 0.02% Brij35, 0.02 mg/ml BSA, 0.1 mM Na3VO4, 2 mM DTT) in the presence of DMSO as control or 5BIODs. The mixtures were reacted for 120 min at room temperature. Samples were transferred onto P81 ion exchange paper and filters were extensively washed with 0.75% phosphoric acid. The radioactivities were monitored.

AuroraA = biological target: T1, AuroraA (Homo sapiens, UniProt O14965); assay: In vitro kinase assay with recombinant protein (33P-ATP), AuroraA; assay type: biochemical; conditions: 120 min at room temperature, read-out: IC50 against kinase activity in vitro, AuroraA
T1 sequence (O14965 1-403): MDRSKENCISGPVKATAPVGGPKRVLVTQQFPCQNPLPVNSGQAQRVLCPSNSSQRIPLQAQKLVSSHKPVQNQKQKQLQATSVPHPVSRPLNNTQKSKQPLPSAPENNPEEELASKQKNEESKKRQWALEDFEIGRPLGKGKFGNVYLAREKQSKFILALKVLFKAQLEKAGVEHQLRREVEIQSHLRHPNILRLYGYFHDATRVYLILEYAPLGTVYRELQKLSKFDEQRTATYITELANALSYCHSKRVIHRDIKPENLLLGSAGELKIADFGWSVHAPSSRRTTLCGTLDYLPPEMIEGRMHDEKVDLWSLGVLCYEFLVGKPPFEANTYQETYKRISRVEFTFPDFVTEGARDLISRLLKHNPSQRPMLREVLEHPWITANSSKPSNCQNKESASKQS
Protocol: as §2

ABL1 (T315I) = ABL1 (T315I) (Homo sapiens, UniProt P00519, T315I); assay: In vitro kinase assay with recombinant protein (33P-ATP), ABL1 (T315I); assay type: biochemical; conditions: 120 min at room temperature, read-out: IC50 against kinase activity in vitro, ABL1 (T315I)
Protocol: as §2

[1] = system: DU145 prostate cancer cells; assay: MTS cell viability assay, DU145 prostate cancer cells; assay type: cell-based, human; conditions: quadruplicate, read-out: IC50 values against cancer cells, DU145 prostate
ABL1 = ABL1 (Homo sapiens, UniProt P00519); assay: In vitro kinase assay with recombinant protein (33P-ATP), ABL1; assay type: biochemical; conditions: 120 min at room temperature, read-out: IC50 against kinase activity in vitro, ABL1
Protocol: as §2

c-Src = c-Src (Homo sapiens, UniProt P12931); assay: In vitro kinase assay with recombinant protein (33P-ATP), c-Src; assay type: biochemical; conditions: 120 min at room temperature, read-out: IC50 against kinase activity in vitro, c-Src
c-Src, sequence (P12931 whole entry): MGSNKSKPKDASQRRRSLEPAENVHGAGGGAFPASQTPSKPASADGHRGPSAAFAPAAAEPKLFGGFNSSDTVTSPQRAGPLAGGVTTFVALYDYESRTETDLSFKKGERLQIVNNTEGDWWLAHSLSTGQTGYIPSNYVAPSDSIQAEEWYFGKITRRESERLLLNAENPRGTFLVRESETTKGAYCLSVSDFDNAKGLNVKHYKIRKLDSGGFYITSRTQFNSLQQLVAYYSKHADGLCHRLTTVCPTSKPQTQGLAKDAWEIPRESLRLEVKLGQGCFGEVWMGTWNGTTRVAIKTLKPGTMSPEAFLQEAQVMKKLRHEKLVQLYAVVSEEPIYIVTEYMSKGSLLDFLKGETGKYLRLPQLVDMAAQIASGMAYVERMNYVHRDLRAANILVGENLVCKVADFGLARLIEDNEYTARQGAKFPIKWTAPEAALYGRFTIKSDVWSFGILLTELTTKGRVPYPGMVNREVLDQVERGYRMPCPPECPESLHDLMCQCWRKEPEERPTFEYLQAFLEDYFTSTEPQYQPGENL
Protocol: as §2

TYK2 = TYK2 (Homo sapiens, UniProt P29597); assay: In vitro kinase assay with recombinant protein (33P-ATP), TYK2; assay type: biochemical; conditions: 120 min at room temperature, read-out: IC50 against kinase activity in vitro, TYK2
TYK2, sequence (P29597 whole entry): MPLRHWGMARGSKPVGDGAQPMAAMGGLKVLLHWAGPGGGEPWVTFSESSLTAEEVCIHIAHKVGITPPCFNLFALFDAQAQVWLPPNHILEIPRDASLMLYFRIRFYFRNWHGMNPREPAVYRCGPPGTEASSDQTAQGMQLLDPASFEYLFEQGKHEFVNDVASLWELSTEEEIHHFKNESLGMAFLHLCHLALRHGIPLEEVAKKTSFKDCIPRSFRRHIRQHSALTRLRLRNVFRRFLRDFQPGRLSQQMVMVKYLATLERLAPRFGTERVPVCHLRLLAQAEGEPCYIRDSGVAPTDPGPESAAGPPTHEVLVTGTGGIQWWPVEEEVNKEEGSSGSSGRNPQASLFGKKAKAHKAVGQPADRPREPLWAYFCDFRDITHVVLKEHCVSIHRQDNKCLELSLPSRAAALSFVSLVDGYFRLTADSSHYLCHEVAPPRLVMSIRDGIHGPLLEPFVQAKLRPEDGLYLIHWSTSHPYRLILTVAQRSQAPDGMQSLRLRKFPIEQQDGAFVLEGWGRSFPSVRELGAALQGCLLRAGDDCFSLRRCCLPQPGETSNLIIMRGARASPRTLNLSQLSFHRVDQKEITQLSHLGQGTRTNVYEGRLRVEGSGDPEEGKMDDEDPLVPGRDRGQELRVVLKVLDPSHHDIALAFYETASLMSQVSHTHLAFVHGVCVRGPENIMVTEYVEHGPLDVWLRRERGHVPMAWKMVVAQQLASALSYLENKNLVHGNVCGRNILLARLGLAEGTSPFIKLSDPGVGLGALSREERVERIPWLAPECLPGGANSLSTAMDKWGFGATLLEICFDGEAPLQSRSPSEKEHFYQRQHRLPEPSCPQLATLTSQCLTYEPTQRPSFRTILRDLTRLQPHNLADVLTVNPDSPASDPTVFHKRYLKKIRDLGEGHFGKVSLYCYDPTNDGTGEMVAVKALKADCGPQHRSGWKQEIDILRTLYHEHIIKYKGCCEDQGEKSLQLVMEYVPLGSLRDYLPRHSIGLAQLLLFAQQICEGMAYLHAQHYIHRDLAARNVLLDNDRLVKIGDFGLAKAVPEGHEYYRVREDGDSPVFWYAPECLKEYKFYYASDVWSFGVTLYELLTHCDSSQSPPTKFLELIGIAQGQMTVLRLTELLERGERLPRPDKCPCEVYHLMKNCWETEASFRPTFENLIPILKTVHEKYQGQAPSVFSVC
Protocol: as §2

[2] = system: A549 non-small cell lung cancer cells; assay: MTS cell viability assay, A549 lung cancer cells; assay type: cell-based; conditions: Homo sapiens, 48 h exposure, quadruplicate, read-out: IC50 values against cancer cells, A549 lung
Protocol: as §1

[3] = system: T315I Abl mutant KCL-22 CML cells; assay: MTS cell viability assay, T315I Abl mutant KCL-22 CML cells; assay type: cell-based; conditions: Homo sapiens, 48 h exposure, quadruplicate, read-out: IC50 values against cancer cells, T315l Alb mutant KCL-22 CML
Protocol: as §1

[4] = system: SKOV3 ovarian cancer cells; assay: MTS cell viability assay, SKOV3 ovarian cancer cells; assay type: cell-based, human; conditions: for IC50: Homo sapiens, SK-OV-3, MTS cell viability, 48 h exposure, quadruplicate, read-out: IC50 values against cancer cells, SKOV3 ovarian; for effect on viabilities of SKOV3 ovarian cancer cells: MTS assay, FIG. 3 legend, result in words
[5] = system: MIA-PaCa2 pancreatic cancer cells; assay: MTS cell viability assay, MIA-PaCa2 pancreatic cancer cells; assay type: cell-based; conditions: Homo sapiens, 48 h exposure, quadruplicate, read-out: IC50 values against cancer cells, PaCa2 pancreatic
Protocol: as §1

[6] = system: MDA-MB-231 breast cancer cells; assay: MTS cell viability assay, MDA-MB-231 breast cancer cells; assay type: cell-based; conditions: Homo sapiens, 48 h exposure, quadruplicate, read-out: IC50 values against cancer cells, MDA-MB-231 breast
Protocol: as §1

[7] = Homo sapiens, A2058, 48 h exposure
[8] = Homo sapiens, DU-145, 48 h exposure
[9] = Homo sapiens, A2058, 48 h, 48 h exposure
[10] = Homo sapiens, DU-145, 48 h, 48 h exposure

Structure (SMILES)	IC50 (A2058 melanoma cells; 48 h exposure)	IC50 (JAK2)	IC50 (AuroraA)	IC50 (ABL1 (T315I))	IC50 ([1]; 48 h exposure)	IC50 (ABL1)	IC50 (c-Src)	IC50 (TYK2)	IC50 (A2058 melanoma cells; [7])	IC50 [2]	IC50 [4]	IC50 [5]	IC50 [6]	IC50 [1, 8]	IC50 (A2058 melanoma cells; [9])	IC50 [1, 10]	IC50 [3]	effect on viabilities of SKOV3 ovarian cancer cells [4]
CN(CCO/N=C1/C(=C2/C(=O)Nc3ccc(Br)cc32)Nc2ccccc21)CC(O)CO (centres unmarked) [Compound 1279]	2200 nM	410 nM	301 nM	5550 nM	2000 nM	1440 nM	69.6 nM	62.7 nM	–	–	–	–	–	–	–	–	–	–
O=C1Nc2ccc(Br)cc2/C1=C1/Nc2ccccc2/C1=N\OCCN1CCCC1 [Compound 1280]	–	–	–	–	–	–	–	–	1600 nM	840 nM	1340 nM	960 nM	660 nM	660 nM	–	–	860 nM	–
CN(CCO/N=C1/C(=C2/C(=O)Nc3ccc(Br)cc32)Nc2ccccc21)CC(O)CO (centres unmarked) [Compound 1278]	–	104 nM	122 nM	1550 nM	780 nM	392 nM	12.1 nM	27 nM	–	600 nM	750 nM	2500 nM	710 nM	–	1700 nM	–	500 nM	–
CCN(CC)CCO/N=C1/C(=C2/C(=O)Nc3ccc(Br)cc32)Nc2ccccc21 [Compound 1276]	–	526 nM	954 nM	6580 nM	–	1020 nM	34.3 nM	31.6 nM	–	470 nM	410 nM	1200 nM	300 nM	–	360 nM	420 nM	300 nM	reduce viabilities
CCN(CC)CCON=C1C(=C2C(=O)Nc3ccc(Br)cc32)Nc2ccccc21 [Compound 1277]	–	1250 nM	3310 nM	> 10000 nM	–	4770 nM	95.4 nM	146 nM	–	–	–	–	–	–	1900 nM	770 nM	–	–
O=C1Nc2ccc(Br)cc2C1=C1Nc2ccccc2C1=NOCCN1CCCC1 [Compound 1281]	–	264 nM	2050 nM	7080 nM	–	2500 nM	19.7 nM	21 nM	1800 nM	400 nM	750 nM	440 nM	370 nM	660 nM	–	–	580 nM	–
O=C1Nc2ccc(Br)cc2/C1=C1/Nc2ccccc2/C1=N\OCCN1CCN(CCO)CC1 [Compound 1282]	–	–	–	–	–	–	–	–	–	500 nM	770 nM	1000 nM	780 nM	910 nM	–	–	–	–

Further lines, with some results ahead:

IC50 (A2058 melanoma cells; 48 h exposure)	IC50 (JAK2)	IC50 (AuroraA)	IC50 (ABL1 (T315I))	IC50 ([1]; 48 h exposure)	IC50 (ABL1)	IC50 (c-Src)	IC50 (TYK2)	IC50 (A2058 melanoma cells; [7])	IC50 [2]	IC50 [4]	IC50 [5]	IC50 [6]	IC50 [1, 8]	IC50 (A2058 melanoma cells; [9])	IC50 [1, 10]	Structure (SMILES)	IC50 [3]	effect on viabilities of SKOV3 ovarian cancer cells [4]
–	–	–	–	–	–	–	–	–	440 nM	1360 nM	–	1000 nM	–	–	–	CN1CCN(CCO/N=C2/C(=C3/C(=O)Nc4ccc(Br)cc43)Nc3ccccc32)CC1 [Compound 1284]	–	–
–	–	–	–	–	–	–	–	–	930 nM	1840 nM	–	1360 nM	–	–	–	O=C1Nc2ccc(Br)cc2/C1=C1/Nc2ccccc2/C1=N\OCCN1CCN(CCOCCO)CC1 [Compound 1286]	–	–
–	–	–	–	–	–	–	–	1700 nM	–	–	–	–	1500 nM	–	–	CCCN(CCC)CCO/N=C1/C(=C2/C(=O)Nc3ccc(Br)cc32)Nc2ccccc21 [Compound 1502]	–	–
–	47.6 nM	143 nM	214 nM	–	71.4 nM	3.7 nM	20.1 nM	1100 nM	380 nM	460 nM	460 nM	400 nM	690 nM	–	–	O=C1Nc2ccc(Br)cc2C1=C1Nc2ccccc2C1=NOCCN1CCNCC1 [Compound 1289]	600 nM	reduce viabilities
–	–	–	–	–	–	–	–	880 nM	–	–	–	–	320 nM	–	–	CN(C)CCO/N=C1/C(=C2/C(=O)Nc3ccc(Br)cc32)Nc2ccccc21 [Compound 1501]	–	–
